Here are results for 6 compounds from patent publication US6869973B2, “Nitrosated and nitrosylated taxanes, compositions and methods of use” (NitroMed, Inc., priority 2000, dated 2005).

The subject of test [1] is human coronary artery smooth muscle cells (CASMC). Put plainly: Vascular smooth muscle cell (SMC) antiproliferation assay. It is filed as cell-based. The procedure: The cells used in this assay were human coronary artery smooth muscle cells (CASMC) supplied by Clonetics Corp. (San Diego, Calif.). They were maintained in SmGM-2 growth medium (Clonetics Corp.), which consisted of modified MCDB 131 medium supplemented with 5% (v/v) fetal bovine serum (FBS), 0.5 ng/mL human recombinant epidermal growth factor (EGF), 2 ng/mL human recombinant fibroblast growth factor (FGF), 5 μg/mL bovine insulin, 50 μg/mL gentamicin sulfate, and 50 ng/mL amphotericin B under humidified 95% air-5% CO2 at 37° C.
For the SMC antiproliferation assay, the cells were seeded at 3×10^4 viable cells in 2 mL of SmGM-2 medium per well of a Corning 24 well plate (Corning, N.Y.). Stock solutions of the test compounds were prepared just prior to addition to the cells by dissolving in ethanol at a concentration of 40 mM. This stock solution was diluted, as required, with ethanol to lower concentrations. […] Control cultures received 2 μL of ethanol per well (n=4). On the following morning, the cultures were examined microscopically and their condition recorded. On the third day after test compound addition (˜68 hr), the cultures were examined microscopically again and the viable cells counted with an hemacytometer following trypsinization with 0.25% trypsin-1 mM EDTA. Trypan Blue dye exclusion was used to discriminate between viable and dead cells.
(§1) The SMC antiproliferation assay was performed as described in Example 5.
as §1

The test system of another test is rabbit platelets. Put plainly: Rabbit platelet aggregation assay (ADP-induced, platelet-rich plasma). Type of test: cell-based, New Zealand White rabbits. As to conditions: rabbit PRP, 2 min pre-incubation, FIG. 2; for effect on platelet aggregation (qualitative): concentrations higher than 1 μM. The procedure:
Blood was collected from New Zealand White rabbits into a sodium citrate solution. Platelet-rich plasma (PRP) and platelet-poor plasma (PPP) were obtained by centrifugation of the citrated blood. Aggregation of the platelets, which was induced by addition of adenosine diphosphate (ADP), was measured in a Chrono-Log Aggregometer (Havertown, Pa.). Stock solutions of the test compounds were prepared in ethanol at concentrations 1000-fold higher than the final concentrations. The test compounds at these different concentrations were pre-incubated with the PRP for 2 min with stirring prior to the addition of ADP. Inhibition of aggregation was quantified as follows: % Inhibition=100% (1−(Max. Ampl. Agg. in Test Compound/Max. Ampl. Agg. Control)) • “Max. Ampl. Agg. In Test Compound” was the measured maximum amplitude of the platelets in the PRP in the presence of and after pre-incubation with the test compound. • “Max. Ampl. Agg. Control” was the measured maximum amplitude of the platelets in the PRP without test compound addition.
Nitric oxide inhibits the aggregation of platelets whether added as the gas or in the form of a NO donor.

[2] abbreviates: CASMC, viable cell count ~68 hr after compound addition, FIG. 1 / FIG. 3.
The mark [3] stands for this setting: CASMC, qualitative ranking against comparator named in the sentence.

Read-outs that look alike come from different tables or passages of the source.

As for `CC(=O)O[C@H]1C(=O)[C@@]2(C)C([C@H](OC(=O)c3ccccc3)[C@]3(O)C[C@H](OC(=O)[C@H](O)[C@@H](NC(=O)c4ccccc4)c4ccccc4)C(C)=C1C3(C)C)[C@]1(OC(C)=O)CO[C@@H]1C[C@@H]2OC(=O)CC(C)(C)S` (stereo partly drawn) [Example 1d, 15-((3S,2R)-2-hydroxy-3-phenyl-3-(phenylcarbonylamino)propanoyloxy) (2S,4S,9S,10S,15S,7R,12R)-4,12-diacetyloxy-1-hydroxy-10,14,17,17-tetramethyl-6-oxa-11-oxo-2-phenylcarbonyloxytetracyclo(11.3.1.0<3,10>0.0<4,7>)heptadec-13-en-9-yl 3-methyl-3-sulfanylbutanoate], the “concentration that totally suppressed cell proliferation of the seeded cells” value in test [1] (setting [2]) was 0.1 µM. The “effect on platelet aggregation (qualitative)” value (“effect on platelet aggregation” for short) with rabbit platelets is listed as “did not prevent platelet aggregation”.

As to `N[C@@H](CCC(=O)N[C@@H](CSN=O)C(=O)NCC(=O)O)C(=O)O` [S-Nitrosoglutathione, reference compound], the “final concentration that totally inhibited platelet aggregation” value in the test on rabbit platelets stood at 1 µM.

Regarding `CC(=O)OC1C(=O)C2(C)C(OC(=O)COCC(=O)OCC(CO[N+](=O)[O-])(CO[N+](=O)[O-])CO[N+](=O)[O-])CC3OCC3(OC(C)=O)C2C(OC(=O)c2ccccc2)C2(O)CC(OC(=O)C(OC(=O)COCC(=O)OCC(CO[N+](=O)[O-])(CO[N+](=O)[O-])CO[N+](=O)[O-])C(NC(=O)c3ccccc3)c3ccccc3)C(C)=C1C2(C)C` [Example 4, (1S,2S,4S,9S,10S,15S,7R,12R)-4,12-diacetyloxy-9-{2-(({2,2-bis((nitrooxy)methyl)-3-(nitrooxy)propyl}oxycarbonyl)methoxy)acetyloxy}-1-hydroxy-10,14,17,17-tetramethyl-6-oxa-11-oxo-2-phenylcarbonyloxytetracyclo (11.3.1.0<3,10>0.0<4,7>)heptadec-13-en-15-yl(3S,2R)-2-{2-(({2,2-bis ((nitrooxy)methyl)-3-(nitrooxy)propyl}oxycarbonyl)methoxy)acetyloxy}-3-phenyl-3-(phenylcarbonylamino)propanoate], the “concentration that totally suppressed cell proliferation of the seeded cells” value in test [1] (setting [2]) came to 1 µM. In addition, the “comparison of inhibition of proliferation of vascular smooth muscle cells” value in test [1] (setting [3]) is reported as “superior to paclitaxel”.

Consider “9-(2-({((2R)-2,3-bis(nitrooxy)propyl)oxycarbonyl}methoxy)acetyloxy)(1S,2S,4S,9S,10S,15S,7R,12R)-4,12-diacetyloxy-1-hydroxy-10,14,17,17-tetramethyl-6-oxa-11-oxo-2 phenylcarbonyloxytetracyclo (11.3.1.0<3,10>0.0<4,7>)heptadec-13-en-15-yl 2-(2-({((2R)-2,3-bis(nitrooxy)propyl)oxycarbonyl}methoxy)acetyloxy)(3S,2R)-3-phenyl-3-(phenylcarbonylamino)propanoate [Example 3]”, for which, in test [1], the “comparison of inhibition of proliferation of vascular smooth muscle cells” value is “superior to paclitaxel” and the “concentration that totally suppressed cell proliferation of the seeded cells” value is 1 µM.

For `CC(=O)O[C@H]1C(=O)[C@@]2(C)C([C@H](OC(=O)c3ccccc3)C3(O)C[C@H](OC(=O)[C@H](O)[C@@H](NC(=O)c4ccccc4)c4ccccc4)C(C)=C1C3(C)C)[C@]1(OC(C)=O)CO[C@@H]1C[C@@H]2OC(=O)CC(C)(C)SN=O` (stereo partly drawn) [Example 1, 15-((3S,2R)-2-hydroxy-3-phenyl-3-(phenylcarbonylamino)propanoyloxy) (2S,4S,9S,10S,15S,7R,12R)-4,12-diacetyloxy-1-hydroxy-10,14,17,17-tetramethyl-6-oxa-11-oxo-2-phenylcarbonyloxytetracyclo (11.3.1.0<3,10>0.0<4,7>)heptadec-13-en-9-yl 3-methyl-3-(nitrosothio) butanoate], the “concentration that totally suppressed cell proliferation of the seeded cells” value in test [1] (setting [2]) is 0.1 µM. Also, in test [1] (setting [3]), the “comparison of inhibition of proliferation of vascular smooth muscle cells” value was “superior to its non-nitrosylated derivative (Example 1d)”. Besides, in the test with rabbit platelets, the “effect on platelet aggregation” value is given as “inhibited platelet aggregation, but required higher concentrations than SNO-Glu”.

In the case of `CC(=O)O[C@H]1C(=O)[C@@]2(C)[C@H]([C@H](OC(=O)c3ccccc3)[C@]3(O)C[C@H](OC(=O)[C@H](O)[C@@H](NC(=O)c4ccccc4)c4ccccc4)C(C)=C1C3(C)C)[C@]1(OC(C)=O)CO[C@@H]1C[C@@H]2O` [Paclitaxel, reference compound], the “concentration that totally suppressed cell proliferation of the seeded cells” value in test [1] (setting [2]) amounted to 0.01 µM. Also, in the test with rabbit platelets, the “effect on platelet aggregation” value is on record as “did not prevent platelet aggregation”.
